# Data reported in ChEMBL document CHEMBL3227965, “Synthesis of 5-selenium-substituted uracil derivatives. Inhibition of thymidylate synthetase by 5-hydroseleno-2'-deoxyuridylate” (J Med Chem, 1979).
# Activity calls are given as the source filed them. The calls are words filed in the database; no cut-off is given here.
# How the values were obtained:
# [1] = biological target: T1, Thymidylate synthase (Lactobacillus casei, UniProt P00469); test: Inhibition of dichloromethotrexate-resistant Lactobacillus casei thymidylate synthase by Dixon plot method; design: species or system Lacticaseibacillus casei
# T1 sequence (P00469 whole entry): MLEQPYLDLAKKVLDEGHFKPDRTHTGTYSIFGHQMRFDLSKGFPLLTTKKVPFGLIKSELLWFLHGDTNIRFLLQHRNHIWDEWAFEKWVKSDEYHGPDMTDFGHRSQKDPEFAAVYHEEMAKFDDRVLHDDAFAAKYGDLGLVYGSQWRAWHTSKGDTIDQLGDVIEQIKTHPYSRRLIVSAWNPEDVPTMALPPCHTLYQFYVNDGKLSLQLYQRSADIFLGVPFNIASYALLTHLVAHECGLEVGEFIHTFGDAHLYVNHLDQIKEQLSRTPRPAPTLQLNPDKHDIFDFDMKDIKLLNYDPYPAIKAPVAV
# [2] = system: L1210; test: Cytotoxicity against mouse L1210 cells assessed as growth inhibition at 10^-4 M; format: functional, cell-based
# [3] = system: L1210; test: Cytotoxicity against mouse L1210 cells assessed as growth inhibition at 5 x 10^-6 M; format: functional, cell-based
# [4] = biological target: T1, Thymidylate synthase; test: Reversible competitive inhibition of dichloromethotrexate-resistant Lactobacillus casei thymidylate synthase using […] as substrate by Dixon plot method; design: species or system Lacticaseibacillus casei; details: read-out: Ki(app)
smiles,measurement,setting,value
O=c1[nH]c(=O)n([C@H]2C[C@H](O)[C@@H](COP(=O)(O)O)O2)cc1S,Ki,[1],48 nM
O=c1[nH]c(=O)n([C@H]2C[C@H](O)[C@@H](CO)O2)cc1[Se][Se]c1cn([C@H]2C[C@H](O)[C@@H](CO)O2)c(=O)[nH]c1=O,Activity,[2],inactive
O=c1[nH]c(=O)n([C@H]2C[C@H](O)[C@@H](CO)O2)cc1S,Activity,[3],Active
O=c1[nH]c(=O)n([C@H]2C[C@H](O)[C@@H](COP(=O)(O)O)O2)cc1[SeH],Ki,[4],60 nM
